Measurements from patent publication US6569872B1, “Use of neurokinin receptor antagonists to treat androgen-dependent diseases” (Schering Corporation, priority 2001, dated 2003).

Assays:
[1] = tested on: serum testosterone; assay: Reduction of LHRH-stimulated serum testosterone in mice; format: in vivo, male nude mice
Procedure: The effects of Compounds A, B, C, D, E and F on serum testosterone were tested in mice given intramuscular (i.m.) luteinizing hormone releasing hormone (LHRH) to drive testicular androgen biosynthesis.
Male nude mice (8 weeks old, 5 mice/group) were dosed orally with 0, 5, 15, 45, 90, 150 or 300 mg/kg of Compound A in 20% hydroxypropyl β-cyclodextran (HPβCD). After 1 hour, animals were given an i.m. injection of LHRH (250 ng/kg in 50 μl Sterile Water) into the biceps femoris muscle to drive testosterone production. After an additional hour, the animals were anesthetized with ketamine/xylazine, bled by cardiac puncture, and serum testosterone levels were determined by radioimmunoassay.
The effects of 90 mg/kg of Compounds A, B, C, D, E and F on LHRH-stimulated serum testosterone levels were compared in male nude mice.

[2] = tested on: DU-145 human prostate carcinoma tumors; assay: Androgen-independent tumor growth, DU-145 in nude mice; format: in vivo; details: 15, 45 or 90 mg/kg twice daily i.p., over 30 days
Procedure: (§1) Following the observation of reduction of serum testosterone in mice, the effects of Compound A on androgen-dependent tumor growth were tested. […] Shionogi mouse mammary carcinoma tumors were grown in nude mice as an androgen-dependent model, and DU-145 human prostate carcinoma tumors were grown in nude mice as an androgen-independent model.
In the DU-145 experiment, male nu/nu mice (9-10 weeks old, 10 mice/group) were inoculated with DU-145 prostate carcinoma cells and tumors were grown to approximately 65 mm^3 before initiation of Compound A administration. Mice were treated twice daily, i.p. with 20% HPβCD vehicle control, 15 mg/kg, 45 mg/kg or 90 mg/kg of Compound A. As expected, tumor growth was not inhibited over 30 days in any of the Compound A groups.

[3] = tested on: Shionogi mouse mammary carcinoma tumors; assay: Androgen-dependent tumor growth, Shionogi carcinoma in nude mice; format: in vivo; details: end of 15 days, relative to vehicle control
Procedure: as §1
In the Shionogi experiment, male nu/nu mice (8-9 weeks old, 10 mice/group) were inoculated with Shionogi carcinoma cells and tumors were grown to approximately 150 mm^3 before initiation of Compound A administration. Mice were treated twice daily, i.p. with 20% HPβCD vehicle control, 5 mg/kg Compound A or 15 mg/kg Compound A. Tumor growth was inhibited over 15 days of Compound A treatment relative to vehicle control animals. At the end of 15 days, mean tumor volumes were inhibited by 41% and 69% in the 5 mg/kg and 15 mg/kg groups, respectively.

[4] = tested on: serum concentrations of testosterone (T) and luteinizing hormone (LH); assay: Serum LH and testosterone in male dogs dosed for 1, 3 or 7 days; format: in vivo, beagle dogs
Procedure: To further characterize reproductive system effects, adult male healthy beagle dogs were administered sterile water (placebo) or Compound A orally by gavage for 1, 3 or 7 days (Day 0=first day of dosing). Serum was collected from blood for determination of serum concentrations of testosterone (T) and luteinizing hormone (LH).
There were typically one to three spikes of LH and T within the sampling period. In many dogs the LH spikes preceded the T spikes by 20 to 40 minutes.
In dogs receiving Compound A, serum LH and T concentrations were generally near the lower baseline values at the first time point evaluated (1 hour after the first doses), and then typically declined throughout the 4-hour evaluation. This trend toward decreased LH and T concentrations from 60 to 300 minutes postdose was statistically significant (p<0.0001). LH and T remained at low concentrations for the remainder of the study. […] The decline in LH to very low (mean values of 1.5 to 3.8 ng/ml for Compound A versus 10.2 to 14.8 ng/ml for Controls) concentration was more rapid than that seen with T. In dogs receiving Compound A, serum LH and T concentrations at Day 2 were generally lower than those at Day 0. Serum LH concentrations on Day 6 were similar to those on Day 2, while serum T concentrations on Day 6 were generally lower than those on Day 2. By Days 2 and 6, some LH and many T samples were below the limit of detection despite using sensitive assays.

[5] = format: in vivo
Procedure: Compound A was administered as an aqueous solution in sterile water by daily oral gavage to adult healthy beagle dogs.
The dogs received 28 consecutive daily doses at dose levels of 0, 15, 30 or 60 mg/kg. […] Organ weights of male and female reproductive tract tissues were 33-86% lower than that of concurrent controls, and occurred in all dose groups. […] In the epididymides, vacuolation (mild) of epithelium was also present in the mid- and high-dose males. […] This was characterized in the ovaries by a lack of antral follicles, and most follicles that were present were small and contained only small numbers of granulosa cells. Compared to control dogs, the uterine bodies and horns had less myometrial tissue present. Uterine epithelium from dogs receiving Compound A with immature uteri had very little cytoplasm present. The changes in the female reproductive system may be related to atrophy rather than immaturity.

[6] = tested on: serum LH, T, DHEA, and androstenedione; assay: Lower-dose 7-day study in male beagle dogs; format: in vivo
Procedure: Another study was conducted to evaluate the effects of lower doses (0.1, 0.5, 2.5, 12.5 mg/kg) of Compound A administered to male beagle dogs for 7 days.

[7] = tested on: serum LH, T, androstenedione, and DHEA; assay: Reversibility of the effects on hormones, 7 days dosing and 14-day postdose period; format: in vivo, dogs
Procedure: The following investigative study was conducted to determine whether the changes observed after 1 week of Compound A administration were reversible after a 14-day postdose period. The first day of dosing was Day 1.
There were eight dogs in Group 1, who received placebo (sterile water) and twelve dogs in Group 2, who received Compound A. Dogs were scheduled to be dosed for 7 days; however, one dog died shortly after receiving the sixth dose of compound A. All eight dogs in Group 1 had hormonal evaluations on Day 7; 4 of these dogs were necropsied on Day 8. The remaining four dogs in Group 1 had hormonal evaluations on Day 21 (14 days postdose), and were necropsied on Day 22. In Group 2, eleven dogs had hormonal evaluations on Day 7, and five were necropsied on Day 8. The remaining six dogs in Group 2 had hormonal evaluations on Day 21 (14 days postdose) and were necropsied on Day 22.
There were typically one to three spikes of LH and T within the sampling period. In many dogs the LH spikes preceded the T spikes by 30 to 60 minutes. Androstenedione and DHEA concentrations tended to rise and fall with those of T, although in some dogs there were many values below the limit of quantitation.
In dogs receiving Compound A at Day 7, serum LH, T, androstenedione, and DHEA concentrations were often very low. Group mean values for LH, T, androstenedione, and DHEA were 14.7, 1.5, 0.37, and 0.88 ng/ml for dogs receiving sterile water, while dogs receiving Compound A had group mean values of 2.4, 0.05, 0.01 and 0.03 ng/ml, respectively. […] It should also be noted that on Day 7 almost all T, androstenedione, and DHEA samples were below the limit of detection despite using sensitive assays.

[8] = males, all dose groups, 28 days oral
[9] = 7 days, 0.1, 0.5, 2.5, 12.5 mg/kg
[10] = 7 days, doses of 2.5 and 12.5 mg/kg

CN(C/C(=N\O)C(CCN1CCC(N2CCCC(CC(N)=O)C2=O)CC1)c1ccc(Cl)c(Cl)c1)C(=O)c1cc(Cl)cc(Cl)c1 (stereo not shown) [B]
reduction of LHRH-stimulated serum testosterone (statistical significance) ([1]; 90 mg/kg, male nude mice): statistically significant (p<0.01) reduction

CO/N=C(\CN(C)C(=O)c1cc(Cl)cc(Cl)c1)C(CCN1CCC(N2CCCC(CC(N)=O)C2=O)CC1)c1ccc(Cl)c(Cl)c1 (stereo not shown) [C]
reduction of LHRH-stimulated serum testosterone (statistical significance) ([1]; 90 mg/kg, male nude mice): statistically significant (p<0.01) reduction

CNC(=O)CC1CCCN(C2CCN(CCC(/C(CN(C)C(=O)c3cc(Cl)cc(Cl)c3)=N/OC)c3ccc(Cl)c(Cl)c3)CC2)C1=O (stereo not shown) [Compound A]
tumor growth inhibition [2]: not inhibited
inhibition of mean tumor volume ([3]; 5 mg/kg twice daily i.p.): 41%
inhibition of mean tumor volume ([3]; 15 mg/kg twice daily i.p.): 69%
group mean serum T concentration compared to concurrent controls ([4]; Day 0, 2 and 6, p≦0.0001): significant lower
group mean serum LH concentration compared to concurrent controls ([4]; Day 0, 2 and 6, p≦0.0005): significant lower
pulsatile patterns of serum LH and T ([4]; male beagle dogs, oral gavage): lacked the normal pulsatile patterns
inhibition of serum testosterone ([1]; 15 mg/kg oral in 20% HPβCD, LHRH i.m. after 1 hour, bled after an additional hour): 62%
reduction of LHRH-stimulated serum testosterone (statistical significance) ([1]; 90 mg/kg, male nude mice): statistically significant (p<0.01) reduction
maximum inhibition of serum testosterone ([1]; 300 mg/kg oral in 20% HPβCD, LHRH i.m. after 1 hour, bled after an additional hour): 83%
organ weights of male and female reproductive tract tissues, lower than concurrent controls ([5]; beagle dogs, oral gavage, 28 daily doses, all dose groups (15, 30, 60 mg/kg)): 33-86%
appearance of ovaries and uteri ([5]; females, at least one dog in each dose group, 28 days oral): appeared immature
aspermia/hypospermia in the epididymides ([5]; males, 28 days oral): observed in all dose groups
atrophy of epididymides (microscopic grade) [5, 8]: minimal to moderate
atrophy of prostate gland (microscopic grade) [5, 8]: mild to moderate
atrophy of seminiferous tubules in the testes (microscopic grade) [5, 8]: severe
vacuolation of epithelium in the epididymides (grade) ([5]; mid- and high-dose males, 28 days oral): mild
histopathologic changes in testes and epididymides [6, 9]: degeneration and cellular debris in the seminiferous tubules, interstitial cell vacuolation in the testes, epithelial vacuolation, atrophy, apoptosis, hypospermia, and interstitial edema of the epididymides
histopathologic changes of the prostate gland [6, 9]: Epithelial apoptosis and atrophy
decrease in serum DHEA (dehydroepiandrosterone) [6, 10]: clearly observed
decrease in serum LH [6, 10]: clearly observed
decrease in serum T [6, 10]: clearly observed
decrease in serum androstenedione [6, 10]: clearly observed
group mean serum androstenedione ([7]; Day 7, sterile water group 0.37 ng/ml): 0.01 ng/mL
group mean serum DHEA ([7]; Day 7, sterile water group 0.88 ng/ml): 0.03 ng/mL
group mean serum T ([7]; Day 7, sterile water group 1.5 ng/ml): 0.05 ng/mL
group mean serum LH ([7]; Day 7, sterile water group 14.7 ng/ml): 2.4 ng/mL
serum DHEA group mean and peak mean concentrations versus concurrent controls ([7]; Day 21 (14 days postdose)): not significantly different
serum LH group mean and peak mean concentrations versus concurrent controls ([7]; Day 21 (14 days postdose)): not significantly different
serum T group mean and peak mean concentrations versus concurrent controls ([7]; Day 21 (14 days postdose)): not significantly different
serum androstenedione group mean and peak mean concentrations versus concurrent controls ([7]; Day 21 (14 days postdose)): not significantly different
mortality ([7]; twelve dogs in the group, shortly after the sixth dose): one dog died

CNC(=O)CC1CCCN(C2CCN(CCC(/C(CNC(=O)c3cc(Cl)cc(Cl)c3)=N/OC)c3ccc(Cl)c(Cl)c3)CC2)C1=O (stereo not shown) [Compound D]
reduction of LHRH-stimulated serum testosterone (statistical significance) ([1]; 90 mg/kg, male nude mice): failed to reach statistical significance
reduction of mean serum testosterone ([1]; 90 mg/kg, male nude mice, LHRH-stimulated): 19%

CO/N=C(\CNC(=O)c1cc(Cl)cc(Cl)c1)C(CCN1CCC(N2CCC[C@H](CC(N)=O)C2=O)CC1)c1ccc(Cl)c(Cl)c1 (stereo partly shown) [E]
reduction of LHRH-stimulated serum testosterone (statistical significance) ([1]; 90 mg/kg, male nude mice): statistically significant (p<0.01) reduction

CNC(=O)C[C@H]1CCCN(C2CCN(CC[C@@H](/C(CN(C)C(=O)c3cc(Cl)cc(Cl)c3)=N/O)c3ccc(Cl)c(Cl)c3)CC2)C1=O [F]
reduction of LHRH-stimulated serum testosterone (statistical significance) ([1]; 90 mg/kg, male nude mice): statistically significant (p<0.01) reduction
